{"source": "paper doi:10.1101/2023.03.24.534094v2", "about": "(biorxiv, 2023)", "test_in_all_cases": "biochemical", "key": {"EphB3": {"biological_target": "T1, EphB3 (Homo sapiens, UniProt P54753)", "T1 sequence (P54753 1-998)": "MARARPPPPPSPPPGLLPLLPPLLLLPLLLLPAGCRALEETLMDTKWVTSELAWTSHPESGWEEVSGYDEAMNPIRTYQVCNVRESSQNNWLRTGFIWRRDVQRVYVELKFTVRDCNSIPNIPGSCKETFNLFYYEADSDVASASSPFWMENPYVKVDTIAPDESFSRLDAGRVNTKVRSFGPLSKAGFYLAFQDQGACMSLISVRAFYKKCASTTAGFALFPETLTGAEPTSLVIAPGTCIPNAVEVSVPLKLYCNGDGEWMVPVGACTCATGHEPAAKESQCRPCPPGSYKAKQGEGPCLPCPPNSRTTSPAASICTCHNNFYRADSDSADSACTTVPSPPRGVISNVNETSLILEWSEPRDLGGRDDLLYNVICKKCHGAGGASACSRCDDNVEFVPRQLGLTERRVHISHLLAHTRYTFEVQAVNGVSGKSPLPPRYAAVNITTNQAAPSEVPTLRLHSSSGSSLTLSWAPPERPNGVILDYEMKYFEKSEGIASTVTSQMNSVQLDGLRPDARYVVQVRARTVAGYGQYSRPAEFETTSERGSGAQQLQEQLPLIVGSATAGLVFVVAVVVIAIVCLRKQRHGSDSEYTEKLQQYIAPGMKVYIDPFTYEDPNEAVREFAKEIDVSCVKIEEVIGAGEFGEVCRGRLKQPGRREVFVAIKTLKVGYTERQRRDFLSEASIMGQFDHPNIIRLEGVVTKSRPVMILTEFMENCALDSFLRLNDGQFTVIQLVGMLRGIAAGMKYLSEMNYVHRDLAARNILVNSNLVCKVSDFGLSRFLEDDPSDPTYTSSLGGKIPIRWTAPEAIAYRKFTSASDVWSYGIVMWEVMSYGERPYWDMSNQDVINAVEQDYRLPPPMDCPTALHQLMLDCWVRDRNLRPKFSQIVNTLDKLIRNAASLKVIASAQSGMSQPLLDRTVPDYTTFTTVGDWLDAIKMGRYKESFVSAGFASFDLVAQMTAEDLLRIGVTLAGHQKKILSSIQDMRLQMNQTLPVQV"}, "DCAMKL1": {"biological_target": "T2, DCAMKL1 (Homo sapiens, UniProt O15075)", "T2 sequence (O15075 1-740)": "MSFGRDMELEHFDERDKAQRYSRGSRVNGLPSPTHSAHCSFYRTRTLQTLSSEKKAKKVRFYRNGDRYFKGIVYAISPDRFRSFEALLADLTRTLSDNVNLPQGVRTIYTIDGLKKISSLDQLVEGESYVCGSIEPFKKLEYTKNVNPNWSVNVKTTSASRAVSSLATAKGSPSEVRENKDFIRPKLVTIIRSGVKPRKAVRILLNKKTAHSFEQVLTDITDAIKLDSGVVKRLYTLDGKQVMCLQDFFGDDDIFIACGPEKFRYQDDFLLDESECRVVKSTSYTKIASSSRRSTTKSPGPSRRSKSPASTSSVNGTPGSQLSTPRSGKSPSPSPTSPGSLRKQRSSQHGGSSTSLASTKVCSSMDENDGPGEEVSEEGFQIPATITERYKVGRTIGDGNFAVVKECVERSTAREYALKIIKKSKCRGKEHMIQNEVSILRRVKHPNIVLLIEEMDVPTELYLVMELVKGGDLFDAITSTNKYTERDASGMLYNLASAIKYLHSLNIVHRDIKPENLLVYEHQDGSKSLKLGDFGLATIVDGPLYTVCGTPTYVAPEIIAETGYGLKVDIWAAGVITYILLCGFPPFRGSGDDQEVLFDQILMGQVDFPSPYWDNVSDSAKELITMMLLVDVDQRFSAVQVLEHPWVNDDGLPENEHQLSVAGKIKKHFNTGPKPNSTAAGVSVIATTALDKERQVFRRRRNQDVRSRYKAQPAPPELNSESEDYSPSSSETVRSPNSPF"}, "SRPK1": {"biological_target": "SRPK1 (Homo sapiens, UniProt Q96SB4)", "sequence (Q96SB4 whole entry)": "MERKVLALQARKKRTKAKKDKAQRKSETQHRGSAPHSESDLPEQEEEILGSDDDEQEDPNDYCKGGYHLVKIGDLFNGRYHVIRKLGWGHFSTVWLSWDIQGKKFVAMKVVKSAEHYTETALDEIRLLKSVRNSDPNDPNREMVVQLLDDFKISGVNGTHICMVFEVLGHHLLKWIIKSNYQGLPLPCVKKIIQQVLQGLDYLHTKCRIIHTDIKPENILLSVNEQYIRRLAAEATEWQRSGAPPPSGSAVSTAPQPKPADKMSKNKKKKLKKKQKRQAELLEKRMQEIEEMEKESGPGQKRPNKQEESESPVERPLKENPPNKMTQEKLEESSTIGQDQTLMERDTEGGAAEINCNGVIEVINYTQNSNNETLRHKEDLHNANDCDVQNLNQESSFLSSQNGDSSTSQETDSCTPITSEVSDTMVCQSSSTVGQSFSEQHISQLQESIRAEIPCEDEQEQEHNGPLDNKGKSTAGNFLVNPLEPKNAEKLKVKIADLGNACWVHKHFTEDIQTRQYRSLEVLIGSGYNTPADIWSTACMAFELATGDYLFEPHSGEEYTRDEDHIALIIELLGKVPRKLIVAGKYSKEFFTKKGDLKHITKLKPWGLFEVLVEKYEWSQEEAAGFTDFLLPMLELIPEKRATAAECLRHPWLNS"}, "CK2a2": {"biological_target": "CK2a2 (Homo sapiens, UniProt P19784)", "sequence (P19784 whole entry)": "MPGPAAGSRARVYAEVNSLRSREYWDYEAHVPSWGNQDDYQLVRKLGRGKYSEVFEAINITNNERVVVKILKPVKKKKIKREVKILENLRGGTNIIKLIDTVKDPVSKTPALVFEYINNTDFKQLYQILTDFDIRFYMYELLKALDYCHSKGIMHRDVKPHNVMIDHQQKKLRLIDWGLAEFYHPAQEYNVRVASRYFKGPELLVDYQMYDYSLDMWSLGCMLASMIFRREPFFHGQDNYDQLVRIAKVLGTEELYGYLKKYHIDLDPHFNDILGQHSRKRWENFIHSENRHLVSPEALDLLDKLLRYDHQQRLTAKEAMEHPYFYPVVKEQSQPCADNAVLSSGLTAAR"}, "PIM1": {"biological_target": "PIM1 (Homo sapiens, UniProt P11309)", "sequence (P11309 whole entry)": "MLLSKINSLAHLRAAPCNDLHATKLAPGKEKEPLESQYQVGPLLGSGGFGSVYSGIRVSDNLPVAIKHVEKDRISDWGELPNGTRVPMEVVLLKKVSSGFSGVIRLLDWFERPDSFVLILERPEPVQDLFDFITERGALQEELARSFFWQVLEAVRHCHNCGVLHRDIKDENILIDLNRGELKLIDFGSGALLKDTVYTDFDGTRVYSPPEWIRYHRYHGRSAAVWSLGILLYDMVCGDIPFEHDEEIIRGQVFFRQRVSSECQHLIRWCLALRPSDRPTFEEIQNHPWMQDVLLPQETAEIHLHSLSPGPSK"}, "DRAK1": {"biological_target": "T3, DRAK1 (Homo sapiens, UniProt Q9UEE5)", "T3 sequence (Q9UEE5 1-414)": "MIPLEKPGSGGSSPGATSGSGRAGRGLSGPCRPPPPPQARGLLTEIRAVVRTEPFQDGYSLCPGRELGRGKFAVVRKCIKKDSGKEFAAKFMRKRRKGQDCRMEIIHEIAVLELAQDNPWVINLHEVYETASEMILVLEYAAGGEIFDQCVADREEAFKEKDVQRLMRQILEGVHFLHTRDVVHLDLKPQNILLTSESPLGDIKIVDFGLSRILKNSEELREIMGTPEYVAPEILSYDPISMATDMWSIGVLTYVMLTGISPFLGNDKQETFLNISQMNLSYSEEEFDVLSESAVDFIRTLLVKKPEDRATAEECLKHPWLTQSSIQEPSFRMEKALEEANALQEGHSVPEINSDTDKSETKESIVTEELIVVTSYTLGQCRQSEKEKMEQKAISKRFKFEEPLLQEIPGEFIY"}, "LOK": {"biological_target": "LOK (Homo sapiens, UniProt O94804)", "sequence (O94804 whole entry)": "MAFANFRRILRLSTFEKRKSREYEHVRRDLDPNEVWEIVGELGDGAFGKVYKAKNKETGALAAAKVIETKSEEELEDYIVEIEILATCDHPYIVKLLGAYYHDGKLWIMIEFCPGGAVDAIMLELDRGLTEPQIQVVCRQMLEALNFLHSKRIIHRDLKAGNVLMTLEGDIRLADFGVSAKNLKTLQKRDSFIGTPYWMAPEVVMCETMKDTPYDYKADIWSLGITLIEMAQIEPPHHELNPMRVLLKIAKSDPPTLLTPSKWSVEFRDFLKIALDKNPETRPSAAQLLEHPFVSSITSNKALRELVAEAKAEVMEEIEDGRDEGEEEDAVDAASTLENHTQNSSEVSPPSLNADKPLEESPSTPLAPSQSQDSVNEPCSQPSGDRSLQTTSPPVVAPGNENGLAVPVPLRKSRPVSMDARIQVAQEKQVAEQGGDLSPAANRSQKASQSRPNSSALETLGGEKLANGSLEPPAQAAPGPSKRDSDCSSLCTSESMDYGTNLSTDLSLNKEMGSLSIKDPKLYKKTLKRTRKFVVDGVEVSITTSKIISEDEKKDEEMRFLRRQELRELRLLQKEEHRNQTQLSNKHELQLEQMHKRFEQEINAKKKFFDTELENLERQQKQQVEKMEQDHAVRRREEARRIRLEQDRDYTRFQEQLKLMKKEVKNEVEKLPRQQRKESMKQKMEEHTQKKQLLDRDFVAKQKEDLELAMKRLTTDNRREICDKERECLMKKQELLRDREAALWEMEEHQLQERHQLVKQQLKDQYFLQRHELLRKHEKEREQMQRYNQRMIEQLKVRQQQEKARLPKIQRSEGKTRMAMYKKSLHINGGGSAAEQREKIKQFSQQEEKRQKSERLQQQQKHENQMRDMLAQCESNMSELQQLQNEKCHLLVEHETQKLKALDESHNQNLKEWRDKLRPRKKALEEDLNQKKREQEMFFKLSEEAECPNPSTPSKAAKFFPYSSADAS"}, "CLK3": {"biological_target": "CLK3 (Homo sapiens, UniProt P49761)", "sequence (P49761 whole entry)": "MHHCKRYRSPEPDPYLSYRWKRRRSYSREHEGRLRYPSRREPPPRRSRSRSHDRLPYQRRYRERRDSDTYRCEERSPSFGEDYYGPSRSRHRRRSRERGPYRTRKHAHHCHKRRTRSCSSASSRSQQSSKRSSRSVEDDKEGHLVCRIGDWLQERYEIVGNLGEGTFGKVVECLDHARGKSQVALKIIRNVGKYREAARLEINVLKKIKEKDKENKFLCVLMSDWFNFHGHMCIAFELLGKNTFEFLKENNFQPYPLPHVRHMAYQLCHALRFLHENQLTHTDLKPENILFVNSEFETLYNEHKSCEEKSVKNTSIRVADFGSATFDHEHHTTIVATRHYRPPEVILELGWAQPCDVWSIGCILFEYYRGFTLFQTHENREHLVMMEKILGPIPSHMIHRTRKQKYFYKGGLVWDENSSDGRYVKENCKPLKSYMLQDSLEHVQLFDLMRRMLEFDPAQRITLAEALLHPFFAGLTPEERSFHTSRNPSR"}, "CHK2": {"biological_target": "CHK2 (Homo sapiens, UniProt O96017)", "sequence (O96017 whole entry)": "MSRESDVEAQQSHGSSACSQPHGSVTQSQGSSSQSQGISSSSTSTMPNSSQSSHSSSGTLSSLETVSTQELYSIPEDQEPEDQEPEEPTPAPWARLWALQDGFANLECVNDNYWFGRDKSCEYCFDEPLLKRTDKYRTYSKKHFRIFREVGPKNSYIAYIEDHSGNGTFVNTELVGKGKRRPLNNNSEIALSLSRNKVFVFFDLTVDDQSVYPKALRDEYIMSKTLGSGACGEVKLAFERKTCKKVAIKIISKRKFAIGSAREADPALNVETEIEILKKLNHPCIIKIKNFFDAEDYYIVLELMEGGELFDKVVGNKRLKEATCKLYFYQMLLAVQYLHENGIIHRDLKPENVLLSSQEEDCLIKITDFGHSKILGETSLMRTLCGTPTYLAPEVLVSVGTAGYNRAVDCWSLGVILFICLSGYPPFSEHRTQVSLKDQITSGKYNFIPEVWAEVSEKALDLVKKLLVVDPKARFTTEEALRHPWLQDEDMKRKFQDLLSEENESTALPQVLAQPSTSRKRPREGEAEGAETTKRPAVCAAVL"}, "CaMKK2": {"biological_target": "CaMKK2 (Homo sapiens, UniProt Q96RR4)", "sequence (Q96RR4 whole entry)": "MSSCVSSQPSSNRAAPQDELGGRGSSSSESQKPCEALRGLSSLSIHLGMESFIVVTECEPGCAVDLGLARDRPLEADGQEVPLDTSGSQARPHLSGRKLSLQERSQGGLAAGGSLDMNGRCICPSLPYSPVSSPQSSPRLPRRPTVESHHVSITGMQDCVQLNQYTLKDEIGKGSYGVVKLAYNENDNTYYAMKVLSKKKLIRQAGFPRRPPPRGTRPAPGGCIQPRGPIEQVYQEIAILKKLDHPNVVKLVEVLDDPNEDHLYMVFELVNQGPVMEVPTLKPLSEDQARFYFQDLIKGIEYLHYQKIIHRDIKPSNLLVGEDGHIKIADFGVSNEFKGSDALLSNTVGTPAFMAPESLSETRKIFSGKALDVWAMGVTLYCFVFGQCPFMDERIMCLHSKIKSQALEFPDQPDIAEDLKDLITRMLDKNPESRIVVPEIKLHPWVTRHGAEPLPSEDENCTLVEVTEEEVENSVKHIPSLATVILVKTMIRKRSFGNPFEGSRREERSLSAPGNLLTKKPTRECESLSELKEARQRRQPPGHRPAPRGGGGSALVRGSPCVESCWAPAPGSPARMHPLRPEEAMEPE"}, "PIM3": {"biological_target": "PIM3 (Homo sapiens, UniProt Q86V86)"}}, "note": "Where two headings read alike, the source gives them in different places.", "data": [{"smiles": "CNc1ncc2cc(-c3cc(F)c(-c4cccc(C)n4)cc3F)c(=O)n(CCCCN)c2n1", "note": "[compound 12, 8-(4-Aminobutyl)-6-(2,5-difluoro-4-(6-methylpyridin-2-yl)phenyl)-2-(methylamino)pyrido[2,3-d]pyrimidin-7(8H)-one]", "values": [{"measurement": "ΔTm at 10 µM", "setting": "EphB3; read-out: dTm 12", "result": 2.5, "unit": "°C"}, {"measurement": "ΔTm at 10 µM", "setting": "DCAMKL1; read-out: dTm 12", "result": -1.6, "unit": "°C"}, {"measurement": "ΔTm at 10 µM", "setting": "SRPK1; read-out: dTm 12", "result": 0, "unit": "°C"}, {"measurement": "ΔTm at 10 µM", "setting": "CK2a2; read-out: dTm 12", "result": -1, "unit": "°C"}, {"measurement": "ΔTm at 10 µM", "setting": "PIM1; read-out: dTm 12", "result": 0.8, "unit": "°C"}, {"measurement": "ΔTm at 10 µM", "setting": "DRAK1; read-out: dTm 12", "result": 0, "unit": "°C"}, {"measurement": "ΔTm at 10 µM", "setting": "LOK; read-out: dTm 12", "result": -0.4, "unit": "°C"}, {"measurement": "ΔTm at 10 µM", "setting": "CLK3; read-out: dTm 12", "result": -0.3, "unit": "°C"}, {"measurement": "ΔTm at 10 µM", "setting": "CHK2; read-out: dTm 12", "result": 3.3, "unit": "°C"}, {"measurement": "ΔTm at 10 µM", "setting": "CaMKK2; read-out: dTm 12", "result": 0, "unit": "°C"}, {"measurement": "ΔTm at 10 µM", "setting": "PIM3; read-out: dTm 12", "result": -1.2, "unit": "°C"}]}, {"smiles": "CNc1ncc2cc(-c3cc(C(F)(F)F)ccc3Cl)c(=O)n(CCCCN)c2n1", "note": "[compound 9, 8-(4-Aminobutyl)-6-(2-chloro-5-(trifluoromethyl)phenyl)-2-(methylamino)pyrido[2,3-d]pyrimidin-7(8H)-one]", "values": [{"measurement": "ΔTm at 10 µM", "setting": "EphB3; read-out: dTm 9", "result": 2.3, "unit": "°C"}, {"measurement": "ΔTm at 10 µM", "setting": "DCAMKL1; read-out: dTm 9", "result": 0.5, "unit": "°C"}, {"measurement": "ΔTm at 10 µM", "setting": "SRPK1; read-out: dTm 9", "result": 0.1, "unit": "°C"}, {"measurement": "ΔTm at 10 µM", "setting": "CK2a2; read-out: dTm 9", "result": 0, "unit": "°C"}, {"measurement": "ΔTm at 10 µM", "setting": "PIM1; read-out: dTm 9", "result": 0.6, "unit": "°C"}, {"measurement": "ΔTm at 10 µM", "setting": "DRAK1; read-out: dTm 9", "result": -1.1, "unit": "°C"}, {"measurement": "ΔTm at 10 µM", "setting": "LOK; read-out: dTm 9", "result": 1.6, "unit": "°C"}, {"measurement": "ΔTm at 10 µM", "setting": "CLK3; read-out: dTm 9", "result": 0.4, "unit": "°C"}, {"measurement": "ΔTm at 10 µM", "setting": "CHK2; read-out: dTm 9", "result": 0.5, "unit": "°C"}, {"measurement": "ΔTm at 10 µM", "setting": "CaMKK2; read-out: dTm 9", "result": 0.4, "unit": "°C"}, {"measurement": "ΔTm at 10 µM", "setting": "PIM3; read-out: dTm 9", "result": 0.4, "unit": "°C"}]}, {"smiles": "CNc1ncc2cc(-c3cc(Cl)ccc3Cl)c(=O)n(CCCCN)c2n1", "note": "[compound 8, 8-(4-Aminobutyl)-6-(2,5-dichlorophenyl)-2-(methylamino)pyrido[2,3-d]pyrimidin-7(8H)-one]", "values": [{"measurement": "ΔTm at 10 µM", "setting": "EphB3; read-out: dTm 8", "result": 4.1, "unit": "°C"}, {"measurement": "ΔTm at 10 µM", "setting": "DCAMKL1; read-out: dTm 8", "result": 1.2, "unit": "°C"}, {"measurement": "ΔTm at 10 µM", "setting": "SRPK1; read-out: dTm 8", "result": 0.3, "unit": "°C"}, {"measurement": "ΔTm at 10 µM", "setting": "CK2a2; read-out: dTm 8", "result": 0, "unit": "°C"}, {"measurement": "ΔTm at 10 µM", "setting": "PIM1; read-out: dTm 8", "result": 0.8, "unit": "°C"}, {"measurement": "ΔTm at 10 µM", "setting": "DRAK1; read-out: dTm 8", "result": 1.1, "unit": "°C"}, {"measurement": "ΔTm at 10 µM", "setting": "LOK; read-out: dTm 8", "result": 2.5, "unit": "°C"}, {"measurement": "ΔTm at 10 µM", "setting": "CLK3; read-out: dTm 8", "result": 0.4, "unit": "°C"}, {"measurement": "ΔTm at 10 µM", "setting": "CHK2; read-out: dTm 8", "result": 0.4, "unit": "°C"}, {"measurement": "ΔTm at 10 µM", "setting": "CaMKK2; read-out: dTm 8", "result": 0.6, "unit": "°C"}, {"measurement": "ΔTm at 10 µM", "setting": "PIM3; read-out: dTm 8", "result": 1, "unit": "°C"}]}, {"smiles": "CNc1ncc2cc(-c3cc(Cl)ccc3Br)c(=O)n(CCCCN)c2n1", "note": "[compound 10, 8-(4-Aminobutyl)-6-(2-bromo-5-chlorophenyl)-2-(methylamino)pyrido[2,3-d]pyrimidin-7(8H)-one]", "values": [{"measurement": "ΔTm at 10 µM", "setting": "EphB3; read-out: dTm 10", "result": 4.6, "unit": "°C"}, {"measurement": "ΔTm at 10 µM", "setting": "DCAMKL1; read-out: dTm 10", "result": 0.9, "unit": "°C"}, {"measurement": "ΔTm at 10 µM", "setting": "SRPK1; read-out: dTm 10", "result": 0.2, "unit": "°C"}, {"measurement": "ΔTm at 10 µM", "setting": "CK2a2; read-out: dTm 10", "result": 0.2, "unit": "°C"}, {"measurement": "ΔTm at 10 µM", "setting": "PIM1; read-out: dTm 10", "result": 0.8, "unit": "°C"}, {"measurement": "ΔTm at 10 µM", "setting": "DRAK1; read-out: dTm 10", "result": -0.8, "unit": "°C"}, {"measurement": "ΔTm at 10 µM", "setting": "LOK; read-out: dTm 10", "result": 3.5, "unit": "°C"}, {"measurement": "ΔTm at 10 µM", "setting": "CLK3; read-out: dTm 10", "result": 0.4, "unit": "°C"}, {"measurement": "ΔTm at 10 µM", "setting": "CHK2; read-out: dTm 10", "result": 0.2, "unit": "°C"}, {"measurement": "ΔTm at 10 µM", "setting": "CaMKK2; read-out: dTm 10", "result": 0.7, "unit": "°C"}, {"measurement": "ΔTm at 10 µM", "setting": "PIM3; read-out: dTm 10", "result": 0.8, "unit": "°C"}]}, {"smiles": "CNc1ncc2cc(-c3cc(Br)ccc3Br)c(=O)n(CCCCN)c2n1", "note": "[compound 11, 8-(4-Aminobutyl)-6-(2,5-dibromophenyl)-2-(methylamino)pyrido[2,3-d]pyrimidin-7(8H)-one]", "values": [{"measurement": "ΔTm at 10 µM", "setting": "EphB3; read-out: dTm 11", "result": 3, "unit": "°C"}, {"measurement": "ΔTm at 10 µM", "setting": "DCAMKL1; read-out: dTm 11", "result": 1.1, "unit": "°C"}, {"measurement": "ΔTm at 10 µM", "setting": "SRPK1; read-out: dTm 11", "result": 0.2, "unit": "°C"}, {"measurement": "ΔTm at 10 µM", "setting": "CK2a2; read-out: dTm 11", "result": 0.1, "unit": "°C"}, {"measurement": "ΔTm at 10 µM", "setting": "PIM1; read-out: dTm 11", "result": 0.6, "unit": "°C"}, {"measurement": "ΔTm at 10 µM", "setting": "DRAK1; read-out: dTm 11", "result": -0.8, "unit": "°C"}, {"measurement": "ΔTm at 10 µM", "setting": "LOK; read-out: dTm 11", "result": 3.6, "unit": "°C"}, {"measurement": "ΔTm at 10 µM", "setting": "CLK3; read-out: dTm 11", "result": 0.4, "unit": "°C"}, {"measurement": "ΔTm at 10 µM", "setting": "CHK2; read-out: dTm 11", "result": 0.4, "unit": "°C"}, {"measurement": "ΔTm at 10 µM", "setting": "CaMKK2; read-out: dTm 11", "result": 0.6, "unit": "°C"}, {"measurement": "ΔTm at 10 µM", "setting": "PIM3; read-out: dTm 11", "result": 0.9, "unit": "°C"}]}]}
